According to BindingDB's records for doi:10.7270/Q2QV3JZ2 (Vanderbilt Screening Center for GPCRs, Ion Channels and …, 2009):

Each molecule was assayed against T1, Solute carrier family 12 member 5 (Homo sapiens, UniProt Q9H2X9) (assay: modulation of KCC2 K-Cl transport – cell-based, assay 2, dose response (AID 1723)). Settings: not given.
T1 sequence (Q9H2X9 whole entry): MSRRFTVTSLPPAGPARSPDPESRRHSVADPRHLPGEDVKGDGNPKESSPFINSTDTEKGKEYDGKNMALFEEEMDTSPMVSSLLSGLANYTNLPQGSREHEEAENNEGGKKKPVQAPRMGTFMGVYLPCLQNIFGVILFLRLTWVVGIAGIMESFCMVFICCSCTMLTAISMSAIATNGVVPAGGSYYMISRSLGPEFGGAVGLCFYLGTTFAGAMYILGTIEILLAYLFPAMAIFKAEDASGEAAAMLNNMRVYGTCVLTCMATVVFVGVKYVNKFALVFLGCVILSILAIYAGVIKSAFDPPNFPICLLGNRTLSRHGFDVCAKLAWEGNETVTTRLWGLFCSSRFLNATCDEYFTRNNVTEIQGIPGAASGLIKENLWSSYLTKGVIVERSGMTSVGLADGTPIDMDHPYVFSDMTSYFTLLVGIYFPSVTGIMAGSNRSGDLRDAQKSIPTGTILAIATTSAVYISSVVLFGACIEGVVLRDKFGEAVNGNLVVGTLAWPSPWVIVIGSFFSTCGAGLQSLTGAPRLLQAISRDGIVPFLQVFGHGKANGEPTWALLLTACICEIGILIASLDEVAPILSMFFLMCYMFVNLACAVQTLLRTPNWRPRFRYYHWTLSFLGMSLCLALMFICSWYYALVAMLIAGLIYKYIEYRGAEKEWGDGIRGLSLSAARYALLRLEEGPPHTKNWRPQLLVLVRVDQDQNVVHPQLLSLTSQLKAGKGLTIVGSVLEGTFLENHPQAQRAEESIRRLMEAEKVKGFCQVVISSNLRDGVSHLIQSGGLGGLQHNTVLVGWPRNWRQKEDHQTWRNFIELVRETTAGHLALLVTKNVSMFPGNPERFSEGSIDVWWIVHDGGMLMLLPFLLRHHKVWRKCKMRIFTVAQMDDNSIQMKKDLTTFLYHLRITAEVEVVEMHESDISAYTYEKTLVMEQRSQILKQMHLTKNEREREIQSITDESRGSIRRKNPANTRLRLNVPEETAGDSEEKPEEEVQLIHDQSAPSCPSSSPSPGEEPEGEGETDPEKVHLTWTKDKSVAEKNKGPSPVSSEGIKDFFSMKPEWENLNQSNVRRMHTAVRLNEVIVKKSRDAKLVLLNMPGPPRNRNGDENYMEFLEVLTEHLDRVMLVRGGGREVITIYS

| Structure (SMILES) | EC50 |
| --- | --- |
| S=C(NCCc1ccccc1)NN=Cc1cccc(Cl)c1Cl [1-[(2,3-dichlorobenzylidene)amino]-3-phenethyl-thiourea] | 14.9 µM |
| S=c1nc(-c2ccc3c(c2)CCO3)cc[nH]1 | 11.2 µM |
| O=C(NC(=S)Nc1nc(-c2cccc([N+](=O)[O-])c2)cs1)c1ccccc1Cl [2-chloranyl-N-[[4-(3-nitrophenyl)-1,3-thiazol-2-yl]carbamothioyl]benzamide] | 74 µM |
| COc1cc(NC(=S)NC(=O)c2ccco2)ccc1NC(=O)C(C)C [MLS000672338] | 12 µM |
| Oc1ccccc1CN=Nc1nc2ccccc2o1 [(6E)-6-[(1,3-benzoxazol-2-ylhydrazo)methylidene]-1-cyclohexa-2,4-dienone] | 49 µM |
| CCOc1cccc(C(=O)NC(=S)Nc2cccc(C)c2)c1 [3-ethoxy-N-(m-tolylthiocarbamoyl)benzamide] | 1.33 µM |
| Fc1cccc(F)c1C=NNC(=S)Nc1cccnc1 [1-[(2,6-difluorobenzylidene)amino]-3-(3-pyridyl)thiourea] | 25.4 µM |
| CC(C)c1ccc(OCC(=O)NNC(=O)c2cnccn2)cc1 [MLS000332605] | 17 µM |
| Cc1[nH]n2c(=O)cc(C(C)C)nc2c1-c1ccccc1 | 16.1 µM |
| COC(=O)c1sccc1NC(=S)OC [3-(methoxycarbothioylamino)thiophene-2-carboxylic acid methyl ester] | 2.46 µM |
| O=C(C=Cc1ccccc1)CC(=O)c1ccccc1O [MLS000627068] | 23.6 µM |

Results, then the molecule that gave them:

| EC50 | Structure (SMILES) |
| --- | --- |
| 0.507 µM | O=[N+]([O-])c1ccc(-c2cn(-c3ccccc3F)c(=S)[nH]2)cc1 |
| 148 µM | O=[N+]([O-])c1ccccc1C=C[CH+][N-]n1c(-c2ccc(Cl)cc2)n[nH]c1=S [MLS000555506] |
| 9.51 µM | Cc1cccc(N2CCN(C(=O)CCCn3c(=S)[nH]c4cc5c(cc4c3=O)OCO5)CC2)c1C [MLS000095366] |
| 5.71 µM | NC(=S)NN=C1C(=O)N(Cc2ccc(F)cc2)c2ccccc21 [1-[(Z)-[1-[(4-fluorophenyl)methyl]-2-oxidanylidene-indol-3-ylidene]amino]thiourea] |
| 8.04 µM | O=C1OC(c2ccc(O)cc2)(c2ccc(O)cc2)c2ccccc21 |
| 8.8 µM | O=c1c2ccccc2[nH]c(=S)n1CCN1CCC(=C(c2ccc(F)cc2)c2ccc(F)cc2)CC1 [SMR000058550] |
| 1.42 µM | Cc1nn(-c2nc3ccccc3[nH]2)c(N)c1-c1ccccc1 [MLS000063763] |
| 976 µM | CCOc1[nH]n(-c2ccccc2)c(=O)c1C=Nc1ccc(F)cc1F [(4E)-4-[[[2,4-bis(fluoranyl)phenyl]amino]methylidene]-5-ethoxy-2-phenyl-pyrazol-3-one] |

Same assay, conditions: inactive by the depositor's call

| EC50 | Structure (SMILES) |
| --- | --- |
| 47 µM | Cc1ccc(-c2ccc(C=NNC(N)=S)o2)cc1 [1-[[5-(4-methylphenyl)furan-2-yl]methylideneamino]thiourea] |
